Results on 1 molecule are retold here after patent publication EP0470795A1, “Process for the manufacture of nitriles” (ZENECA LIMITED, priority 1990, dated 1992).

The test system of this assay is angiotensin II-induced pressor responses. Kind of assay: Test C: antagonism of angiotensin II-induced pressor responses in terminally-anaesthetised or conscious rats. The assay is classed as in vivo. Particulars: Rattus norvegicus, iv; i.v. administration; read-out: ED₅₀. As for the experimental part:
This in vivo test involves using terminally-anaesthetised or conscious rats in which an arterial catheter has been implanted under anaesthesia for the measurement of changes in blood pressure. The AII antagonistic effects of the test compound following oral or parenteral administration, are assessed against angiotensin II-induced pressor responses. To ensure that the effect is specific, the effect of the test compound on vasopressin-induced pressor responses may also be determined in the same preparation.

As to `Cc1cc(OCc2ccc(-c3ccccc3-c3nnn[nH]3)cc2)c2ccccc2n1.Cl` [2-methyl-4-[(2′-(1H-tetrazol-5-yl)biphenyl-4-yl)methoxy]quinoline hydrochloride], the ED50 was determined as 0.5 mg/kg.
